Measurements taken from patent US9096565B2, “Inhibitors of histone deacetylase” (MethylGene Inc., priority 2007, dated 2015).

Target: one or more of HDAC-4, HDAC-5, HDAC-6, HDAC-7, HDAC-8, HDAC-9, HDAC-10 and HDAC-11
Experiment: Inhibition of histone deacetylase enzymatic activity (summary statement over isoforms)
Assay type: biochemical
Settings: Table 3, selected examples; HDAC isoform not given
Method: The following protocol is used to assay the compounds of the invention.
The mixture is pre-incubated for 5 minutes at room temperature. The reaction is started by bringing the temperature to 37° C. and adding 15 μL substrate. Total reaction volume is 50 μL.
A 30 mM stock of Boc-Lys(trifluoroacetyl)-AMC substrate is prepared in DMSO. […] Reaction is started by adding 18 μL Boc-Lys(trifluoroacetyl)-AMC substrate and incubating at 37° C. for 20-30 minutes. The reaction is stopped by adding 50 μL trypsin (1 mg/mL) and a known HDAC inhibitor.

Compound | IC50 [nM]
O=C(NO)C(c1ccccc1)c1ccc(OC2CCN(Cc3ccccc3)CC2)cc1 (centres unmarked) [Compound 5-123, 2-(4-(1-benzylpiperidin-4-yloxy)phenyl)-N-hydroxy-2-phenylacetamide] | < 1000
O=C(NO)C(c1ccccc1)c1ccc(-c2ccc(N3CCOCC3)cc2)cc1 (centres unmarked) [Compound 5-34, N-hydroxy-2-(4′-morpholinobiphenyl-4-yl)-2-phenylacetamide] | < 1000
O=C(NO)C(c1ccccc1)c1nnc(COc2ccccc2)s1 (centres unmarked) [Compound 5-53, N-hydroxy-2-(5-(phenoxymethyl)-1,3,4-thiadiazol-2-yl)-2-phenylacetamide] | < 1000
CCc1ccc(-c2ccc(C(C(=O)NO)c3ccccc3)cc2)cc1 (centres unmarked) [Compound 2-111, 2-(4′-ethylbiphenyl-4-yl)-N-hydroxy-2-phenylacetamide] | < 1000
O=C(NO)C(c1ccccc1)c1cccc(OCCCc2ccccc2)c1 (centres unmarked) [Compound 3-36, N-hydroxy-2-phenyl-2-(3-(3-phenylpropoxy)phenyl)acetamide] | < 1000
O=C(NO)C(c1ccccc1)c1ccc(N2CCC(N3CCCC3)CC2)cc1 (centres unmarked) [Compound 3-83, N-hydroxy-2-phenyl-2-(4-(4-(pyrrolidin-1-yl)piperidin-1-yl)phenyl)acetamide] | < 1000
O=C(NO)C(c1ccccc1)c1ccc(C#CCC2CCCC2)cc1 (centres unmarked) [Compound 2-98, 2-(4-(3-cyclopentylprop-1-ynyl)phenyl)-N-hydroxy-2-phenylacetamide] | < 1000
O=C(CCC1CCCCC1)Nc1ccc(C(C(=O)NO)c2ccccc2)cc1 (centres unmarked) [Compound 2-70, 3-cyclohexyl-N-(4-(2-(hydroxyamino)-2-oxo-1-phenylethyl)phenyl)propanamide] | < 1000
O=C(NO)C(c1ccccc1)c1ccc(-c2cncnc2)cc1 (centres unmarked) [Compound 5-23, N-hydroxy-2-phenyl-2-(4-(pyrimidin-5-yl)phenyl)acetamide] | < 1000
O=C(NO)C(c1ccccc1)c1ccc(OCc2cccc(C(F)(F)F)c2)cc1 (centres unmarked) [Compound 3-71, N-hydroxy-2-phenyl-2-(4-(3-(trifluoromethyl)benzyloxy)phenyl)acetamide] | < 1000
O=C(NO)C(c1ccccc1)c1ccc(OCc2ccccc2Cl)cc1 (centres unmarked) [Compound 3-65, 2-(4-(2-chlorobenzyloxy)phenyl)-N-hydroxy-2-phenylacetamide] | < 1000
O=C(NO)C(c1ccccc1)c1ccc(OCc2cccc(Cl)c2)cc1 (centres unmarked) [Compound 3-66, 2-(4-(3-chlorobenzyloxy)phenyl)-N-hydroxy-2-phenylacetamide] | < 1000
Cc1cccc(COc2ccc(C(C(=O)NO)c3ccccc3)cc2)c1 (centres unmarked) [Compound 3-58, N-hydroxy-2-(4-(3-methylbenzyloxy)phenyl)-2-phenylacetamide] | < 1000
O=C(NO)C(c1ccccc1)c1cccc(OCC2CC2)c1 (centres unmarked) [Compound 3-25, 2-(3-(cyclopropylmethoxy)phenyl)-N-hydroxy-2-phenylacetamide] | 1000 to 15000
CCN(CCOC)c1ccc(C(C(=O)NO)c2ccccc2)cc1 (centres unmarked) [Compound 6-46, 2-(4-(ethyl(2-methoxyethyl)amino)phenyl)-N-hydroxy-2-phenylacetamide] | < 1000
O=C(NO)C(c1ccccc1)c1ccc(NCc2ccccc2)cc1 (centres unmarked) [Compound 2-78, 2-(4-(benzylamino)phenyl)-N-hydroxy-2-phenylacetamide] | < 1000
O=C(Nc1ccc(C(C(=O)NO)c2ccccc2)cc1)C1CCCCC1 (centres unmarked) [Compound 2-57, N-(4-(2-(hydroxyamino)-2-oxo-1-phenylethyl)phenyl)cyclohexanecarboxamide] | < 1000
O=C(NO)C(c1ccccc1)N1CCC(c2ccc(F)cc2)CC1 (centres unmarked) [Compound 5-62, 2-(4-(4-fluorophenyl)piperidin-1-yl)-N-hydroxy-2-phenylacetamide] | < 1000

Compound | IC50 [nM]
O=C(NO)C(c1ccccc1)c1cccc(OCc2ccccc2F)c1 (centres unmarked) [Compound 3-34, 2-(3-(2-fluorobenzyloxy)phenyl)-N-hydroxy-2-phenylacetamide] | < 1000
COc1ccccc1-c1nnc(C(C(=O)NO)c2ccccc2)s1 (centres unmarked) [Compound 1-38, N-hydroxy-2-(5-(2-methoxyphenyl)-1,3,4-thiadiazol-2-yl)-2-phenylacetamide] | < 1000
COc1ccc(-c2ccc(C(C(=O)NO)c3ccccc3)cc2)cc1 (centres unmarked) [Compound 5-9, N-hydroxy-2-(4′-methoxybiphenyl-4-yl)-2-phenylacetamide] | < 1000
O=C(NO)C(c1ccccc1)c1ccc(C#Cc2ccccc2)cc1 (centres unmarked) [Compound 2-97, N-hydroxy-2-phenyl-2-(4-(phenylethynyl)phenyl)acetamide] | < 1000
O=C(NO)C(c1ccccc1)N1CCC(c2noc3ccc(F)cc23)CC1 (centres unmarked) [Compound 5-18, 2-(4-(5-fluorobenzo[d]isoxazol-3-yl)piperidin-1-yl)-N-hydroxy-2-phenylacetamide] | < 1000
CN(C)c1ccc(C(C(=O)NO)c2ccc(O)cc2)cc1 (centres unmarked) [Compound 5-5, 2-(4-(dimethylamino)phenyl)-N-hydroxy-2-(4-hydroxyphenyl)acetamide] | < 1000
CN(C)CCOc1cccc(C(C(=O)NO)c2ccccc2)c1 (centres unmarked) [Compound 3-88, 2-(3-(2-(dimethylamino)ethoxy)phenyl)-N-hydroxy-2-phenylacetamide] | 1000 to 15000
Cc1cc(C(=O)Nc2cccc(C(C(=O)NO)c3ccccc3)c2)c(C)o1 (centres unmarked) [Compound 2-64, N-(3-(2-(hydroxyamino)-2-oxo-1-phenylethyl)phenyl)-2,5-dimethylfuran-3-carboxamide] | 1000 to 15000
O=C(NO)C(c1ccc(N2CCOCC2)cc1)c1ccccc1F (centres unmarked) [Compound 6-17, 2-(2-fluorophenyl)-N-hydroxy-2-(4-morpholinophenyl)acetamide] | < 1000
Cc1cccc(C(C(=O)NO)c2ccc(N3CCOCC3)cc2)c1 (centres unmarked) [Compound 5-125, N-hydroxy-2-(4-morpholinophenyl)-2-m-tolylacetamide] | < 1000
O=C(NO)C(c1ccccc1)N1CCN(C2=Nc3ccccc3Oc3ccc(Cl)cc32)CC1 (centres unmarked) [Compound 5-20, (E)-2-(4-(2-chlorodibenzo[b,f][1,4]oxazepin-11-yl)piperazin-1-yl)-N-hydroxy-2-phenylacetamide] | < 1000
Cn1cncc1C#Cc1ccc(C(C(=O)NO)c2ccccc2)cc1 (centres unmarked) [Compound 5-79, N-hydroxy-2-(4-((1-methyl-1H-imidazol-5-yl)ethynyl)phenyl)-2-phenylacetamide] | < 1000
CCC(=O)ONC(=O)C(c1ccccc1)c1ccc(N2CCOCC2)cc1 (centres unmarked) [Compound 5-114, 2-(4-morpholinophenyl)-2-phenyl-N-(propionyloxy)acetamide] | 1000 to 15000
O=C(NO)C(Sc1ccc2ccccc2c1)c1ccccc1 (centres unmarked) [Compound 5-28, N-hydroxy-2-(naphthalen-2-ylthio)-2-phenylacetamide] | < 1000
O=C(NO)C(c1ccc(N2CCOCC2)cc1)c1cccc(OC(F)(F)F)c1 (centres unmarked) [Compound 6-20, N-hydroxy-2-(4-morpholinophenyl)-2-(3-(trifluoromethoxy)phenyl)acetamide] | 1000 to 15000
O=C(NO)C(Oc1cccc2ccccc12)c1ccccc1 (centres unmarked) [Compound 7-31, N-hydroxy-2-(naphthalen-1-yloxy)-2-phenylacetamide] | < 1000
O=C(NO)C(c1ccccc1)C1CCN(C(=O)c2ccccc2)CC1 (centres unmarked) [Compound 5-127, 2-(1-benzoylpiperidin-4-yl)-N-hydroxy-2-phenylacetamide] | 1000 to 15000
